Counter-ions that a name gives are not always drawn.
How the values were obtained:
[1] = tested on: tracheal smooth muscle (TSM) segments; assay: Relaxation dose-response to isoproterenol in TSM segments half-maximally contracted with ACh; assay type: cell-based, rabbit
Protocol: Rabbits were anesthetized with xylazine (10 mg/kg) and ketarnine (50 mg/kg) and were subsequently sacrificed using an overdose of pentobarbital (130 mg/kg). The tracheae of the rabbits were removed via open thoracotomy, the tracheae were cleared of loose connective tissue and were divided into eight ring segments of 6-8 mm length. Each segment referred to herein as a tracheal smooth muscle (TSM) segment was incubated for 24 hours at room temperature in either of the following: 1) human serum containing immunoglobulin (Ig) E at greater than 1000 IU/ml which was obtained from allergic patients having moderate to severe asthma and a 4-5/6+radioallergosorbent test (RAST) positive (having a specific IgE concentration of more than 17.5 Phadebas RAST units (PRU)/ml) to Dermatophagoides pteronyssimus, Dermatophagoides farinae and ragweed, and a positive skin test to these antigens; or 2) human serum obtained from non-atopic, non-asthmatic individuals having normal serum IgE levels (i.e., <70 IU/ml) and negative skin test reactivity to Dermatophagoides pteronyssimus, Dermatophagoides farinae and ragweed (Hakonarson et al. 1995, Am. J. Physiol. (Lung Cell Mol. Physiol.) 269:L645-L652).
In parallel experiments, TSM segments were incubated in either control serum or in atopic asthmatic serum that was: a) depleted of its immunoglobulin complexes by pretreatment with sepharose Staphylococcus protein A as described (Kessler, 1975, J. Immunol. 1 15:161.7-1624); b) co-incubated with an anti-CD23 (40 μg/ml) monoclonal blocking antibody; or c) with an anti-CD 16 (2 μg/ml) monoclonal blocking antibody. The TSM segments were treated with their respective anti-CD23 or anti-CD16 antibodies in Dulbecco's modified Eagle's medium for 1 hour prior to exposure to the atopic asthmatic serum.
In extended experiments, paired TSM segments were incubated for 24 hours in Dulbecco's modified Eagle's medium, as previously described (Hakonarson et al., 1996, J. Clin. Invest. 97:2593-2600), containing either: a) human IgE (final bath concentration (FBC): 15 μg/ml); or b) human IgE-goat-anti-human IgE immune complexes (FBC: 15:5 μg/ml of IgE/anti-IgE in the final organ bath mixture). Tissues incubated in medium alone served as controls. The concentrations of immune complexes used for the TSM incubations were based on the results obtained in pilot studies which were designed to determine the concentration and ratio of immune complexes that induced the greatest acute contractile effect in isolated sensitized TSM segments. The serum was aerated with a continuous supplemental O2 mixture (95% O2/5% CO2) during the incubation phase.
Following incubation of the tissue preparations obtained as described herein, each rabbit airway segment was suspended longitudinally between stainless steel triangular supports in siliconized Harvard 20 ml organ baths. […] Care was taken to place the membranous portion of the trachea between the supports in order to maximize the recorded tension generated by the contracting trachealis muscle. The tissues were bathed in modified Krebs-Ringer solution containing 125 mM NaCl, 14 mM NaHCO3, 4 mM KCl, 2.25 mM CaCl2.H2O, 1.46 MgSO4.H2O, 1.2 mM NaH2PO4.H2O and 11 mM glucose. The baths were aerated with 5% CO2 in oxygen, a pH of 7.35-7.40 was maintained, and the organ bath temperature was held at 37° C. Passive resting tension of each TSM segment was set at 2.0 g after each tissue had been passively stretched to a tension of 8 g in order to optimize the resting length of each segment as described (Tanaka et al., 1990, J. Clin. Invest. 85:345-350). The tissues were allowed to equilibrate in the organ baths for 45 minutes, at which time each tissue was primed with a 1 minute exposure to 10−4 M acetylcholine (ACh). […]

[2] = tested on: tracheal smooth muscle (TSM) segments; assay: Cholinergic contractility of isolated TSM segments to cumulative ACh (organ bath, isometric tension); assay type: cell-based, rabbit
Protocol: Rabbits were anesthetized with xylazine (10 mg/kg) and ketarnine (50 mg/kg) and were subsequently sacrificed using an overdose of pentobarbital (130 mg/kg). The tracheae of the rabbits were removed via open thoracotomy, the tracheae were cleared of loose connective tissue and were divided into eight ring segments of 6-8 mm length. […]
Following incubation of the tissue preparations obtained as described herein, each rabbit airway segment was suspended longitudinally between stainless steel triangular supports in siliconized Harvard 20 ml organ baths. […] Care was taken to place the membranous portion of the trachea between the supports in order to maximize the recorded tension generated by the contracting trachealis muscle. […]

[3] = TSM incubated with control serum

For `CC(C)NCC(O)c1ccc(O)c(O)c1` (centres unmarked) [isoproterenol, isoproterenol hydrochloride], the “Rmax (% maximal relaxation) for isoproterenol” value (“Rmax (% maximal relaxation)” for short) ([1]; IgE immune complex-treated TSM (15:5 μg/ml, 24 h)) was 36.8±10.4%, the “Rmax (% maximal relaxation)” value ([1]; atopic asthmatic serum-sensitized TSM) was 26.0±5.1% and the “Rmax (% maximal relaxation)” value ([1]; control TSM, vehicle alone 24 h) was 67.8±6.0%. For the same compound, the “Rmax (% maximal relaxation)” value ([1]; control serum-treated TSM) was 47.0±4.7%.
With “SpA: Sepharose Staphylococcus protein A used to deplete the sensitizing serum of its immune complexes” the “Effect on contractility of the tissue to ACh” value [2, 3] was “neither anti-CD23 MAb nor pretreatment of the control serum with SpA affected”, the “Effect on the induced augmented constrictor responses to ACh” value ([2]; atopic asthmatic serum-sensitized TSM, tissue pretreated with antibody (anti-CD23 40 μg/ml, anti-CD16 2 μg/ml) or serum pre-treated with SpA) was “largely prevented” and the “Effect on relaxation responsiveness to isoproterenol” value [1, 3] was “neither anti-CD23 MAb nor pretreatment of the control serum with SpA affected”. For the same compound, the “Effect on the attenuated isoproterenol-induced relaxation responses” value ([1]; atopic asthmatic serum-sensitized TSM, tissue pretreated with antibody (anti-CD23 40 μg/ml, anti-CD16 2 μg/ml) or serum depleted with SpA) was “ablated”.

Reference: patent US6630140B1, “Compositions and methods for treatment of asthma” (The Children's Hospital of Philadelphia, priority 1998, dated 2003)
